Publication PMC9400856 (Molecular Informatics, 2022)

Target: mouse β3-adrenergic receptor (mβ3-AR) (Mus musculus, UniProt P25962)
Assay: cAMP accumulation
Format: cell-based

Sequence of mouse β3-adrenergic receptor (mβ3-AR) (P25962 whole entry): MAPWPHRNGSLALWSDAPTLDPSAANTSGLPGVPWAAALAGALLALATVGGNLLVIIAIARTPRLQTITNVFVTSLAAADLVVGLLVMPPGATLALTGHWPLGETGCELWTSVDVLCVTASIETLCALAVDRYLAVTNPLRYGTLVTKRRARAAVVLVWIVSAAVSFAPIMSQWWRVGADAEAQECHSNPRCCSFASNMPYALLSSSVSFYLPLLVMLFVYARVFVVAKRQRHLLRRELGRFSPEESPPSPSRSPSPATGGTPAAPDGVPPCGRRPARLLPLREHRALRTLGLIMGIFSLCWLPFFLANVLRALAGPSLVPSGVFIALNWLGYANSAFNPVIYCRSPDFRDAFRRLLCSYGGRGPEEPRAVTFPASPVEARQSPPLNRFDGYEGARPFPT

With `C[C@H](Cc1ccc(OCC(=O)O)cc1)NC[C@H](O)c1cccc(Cl)c1` [compound 3, BRL37344] the EC50 was 0.692 nM.
